Measured values taken from patent US5440031A, “1,4,10,13-tetraoxa-7,16-diazacyclooctadecane derivatives, pharmaceutical compositions containing them and their use for the removal of toxic metal ions and radioactive isotopes from living organism” (priority 1990, dated 1995).
“Also recorded” adds a separate entry of the source.

Key:
[1] = tested on: laboratory mice and rats; assay: acute toxicity, LD50/30, injection into blood circulation, 30 days observation; format: in vivo, Swiss mice and Wistar rats
Procedure: The acute toxicity values of the products prepared according to Examples 1 to 16 were determined on laboratory mice and rats in the following manner.
Solutions containing the compounds in various concentrations were prepared by using physiological saline solution or glucose solution of 5% by weight concentration and the active agents were administered in various concentrations into the blood circulation of the animals by injecting them slowly during 3 to 5 minutes. Groups consisting of 6 to 10 animals (Swiss mice and Wistar rats of both sexes) each were used for the various dose levels. […] The LD50/30 value (i.e. the dose causing the death of 50% of the experimental animals within 30 days) was determined from the number of animals died during this period by using probit analysis/D. J. Finney: Probit Analysis (2nd ed.) Cambridge University Press (1952)/. These values expressed in mmol/kg of body-weight for the active agents according to the invention are summarized in column (B) of Table 1.

[2] = radioactive isotope elimination-increasing effect, isotope into abdominal cavity, whole-body retention; format: in vivo, Swiss mice
Text: (§1) The action of the compounds of formula (I) according to the invention, which manifests itself as an increase in the elimination of metal ions damaging the living organism, was investigated by using radioactive strontium or cerium ions on Swiss mice and Wistar rats of both sexes.
(§2) The elimination was studied on radioactive isotopes introduced in various routes to various sites, e.g. to the blood circulation, abdominal cavity, lungs, muscles or subcutaneous connective tissue of the experimental animals. The compound increasing the elimination of the isotopes was administered daily once or two times in the form of an injection, powder or liquid aerosol or plaster to the organism of the experimental animals. Thereafter, whole body activity measurements were performed and retention curves were taken up which then were compared to the results obtained in the control group.
The retention curves obtained were analysed on a computer. "Nonlinear Regression by the Code of BMDP-3R" (BMDP Statistical Software Manual, UCLA, Los Angeles, 1990, Chief Ed. W. J. Dixon) computer software was used for this purpose. It could be stated from the results obtained that the curves could be described by a two-component descending exponential function. Two data were calculated for characterizing the effectivity. One of these was the so-called F factor indicating the increase in the elimination in relation to the control and meaning the multiplication of the isotope elimination under effect of the test compound in relation to the untreated animals/see column (C) in Table 1/.
For the illustrative comparison of the compounds according to the invention additional characteristic data, the so-called EI values are given which were obtained by multiplying the extent of isotope elimination as percentage related to the control group (effectivity, E) with the acute toxicity value (LD50/30, innocuous, I)/see column (D) in Table 1/. Although the EI value is numerically not identical to the therapeutic ratio (safety index), it indicates in all cases to a weak or excellent activity of a product.
The radioactive isotope elimination-increasing effects of compounds prepared according to Examples 1 to 16 were compared on Swiss mice as described hereinafter.
An activity of 37 to 74 kBg (1 to 2 μCi) of radioactive strontium (Sr-85Cl2) or radioactive cerium (Ce-144Cl3), respectively, was administered into the abdominal cavity of the animals which were then divided into treatment groups consisting of 5 to 10 animals each. At 30 to 60 minutes after administration of the isotope, the animals of the treated groups were intravenously (i.v.) given the active agent used in an amount to achieve s concentration of 50 to 100 μmol/kg of body-weight in the animal organism for each treatment. The animals of the control groups were similarly treated with the carrier (sterile physiological saline or glucose solution of 5% by weight concentration) without active agent.
The amount of radioactivity introduced to the animal organism was determined immediately after administration of the isotope, thru these measurements were repeated daily or in every two the or three days in a device constructed for the purpose of the whole-body measurements on small animals. The counts observed were related to the starting activity value of the zero (0) day and a so-called retention/time correlation was obtained by considering the activity retained in the organism. The change of activity of the animal organism in the time is illustrated in FIG. 1 where the time (in days) elapsed after the treatment is shown on the abscissa and the whole-body retention as percentage is plotted on the ordinate. It can be seen that the rate of elimination of Sr-85 administered into the abdominal cavity of control animals was slow: within 1 day only 15%, within 4 days 25% and within 7 days 30% of the activity were eliminated from their organism and the elimination was even more delayed in the later period. […]

[3] = elimination of radioactive strontium introduced through the trachea into the lungs, whole-body retention (FIG. 2); format: in vivo, Wistar rats
Text: FIGS. 2 & 3 show the percentages of metal ions retained in the body, plotted over 32 days after treatment with compound "b)" of example 6 at both full and double strength, referenced against an untreated control.
a) The whole-body retention curves illustrated in FIG. 2 show the elimination of radioactive strontium introduced through the trachea into the lungs of Wistar rats after intraperitoneal (i.p.) administration of the compound described in Example 6 b). It can be seen from the pattern of the upper curve of FIG. 2 that the radioactive strontium was eliminated to a low grade from the organism of control animals treated only with the solvent. Not more than 30 to 35% of the starting activity were eliminated in the days following the inner contamination. […] The rapid elimination of the isotope was continued in the days following the treatment, and reached 88 to 90% in the once-treated group and 94 to 96% in the twice-treated group. […] The residual activity of 5 to 10% measured as whole-body retention was found in the soft parts and liver of the animals whereas the major part (65 to 70%) of the retention found in the controls were built in to the bones. Similarly advantageous results were obtained by administering the compounds according to the invention in an intravenous route or into the subcutaneous connective tissue.

[4] = literature; cited from earlier work
[5] = decorporation investigations by various routes, whole-body activity and deposition in bones; format: in vivo, Swiss mice and Wistar rats; details: decorporating effect; disodium salt
Text: as §1, §2
The retention curves obtained were analysed on a computer. "Nonlinear Regression by the Code of BMDP-3R" (BMDP Statistical Software Manual, UCLA, Los Angeles, 1990, Chief Ed. W. J. Dixon) computer software was used for this purpose. It could be stated from the results obtained that the curves could be described by a two-component descending exponential function. Two data were calculated for characterizing the effectivity. […]

Q: Which “Acute toxicity LD50/30” value ([1]; dose causing death of 50% of animals within 30 days, slow injection into the blood circulation during 3 to 5 minutes, mice and rats, probit analysis) does the source give for “N,N'-bis(dicarboxymethyl)-1,4,10,13-tetraoxa-7,16-diazacyclooctadecane calcium complex disodium salt containing disodium hydroxymalonate and sodium chloride [6/b]” here?
A: above 3.0 mmol/kg

Q: And the EI value ([2]; effectivity (isotope elimination as % related to control) multiplied by LD50/30, 0-5 weak, 5-50 medium, 50-100 good, above 100 excellent)?
A: 160.00

Q: What about the F factor ([2]; multiplication of isotope elimination relative to untreated animals, i.v. 50 to 100 μmol/kg, 30 to 60 minutes after isotope) of the same molecule?
A: 4.2

Q: What about the “radioactive strontium in the bones” value ([3]; animals killed at the end of the experiment, controls 65 to 70% of retention built in to the bones) of the same molecule?
A: hardly any or no radioactive strontium could be detected

Q: And the “whole-body load within 1 day following the treatment, treated once” value ([3]; i.p., once with 50 μmol/kg, control 90%)?
A: 20%

Q: What about the “whole-body load within 1 day following the treatment, treated twice” value ([3]; i.p., twice in 3-hour interval, control 90%) of the same molecule?
A: 20%

Q: Which “stability of calcium complexes versus strontium complexes” value [4] does the source give for `O=C(O)CN(CCN(CC(=O)O)CC(=O)O)CC(=O)O` [ethylenediaminetetraacetic acid] here?
A: substantially more stable than their strontium complexes

Q: Which “toxicity (in words)” value ([1]; in vivo) does the source give for `O=C([O-])C(C(=O)[O-])N1CCOCCOCCN(C(C(=O)[O-])C(=O)[O-])CCOCCOCC1.[Ca+2].[Na+].[Na+]` [N,N'-bis(dicarboxymethyl)-1,4,10,13-tetraoxa-7,16-diazacyclooctadecane calcium complex disodium salt] here?
A: low toxicity

Q: And the “effectivity (in words)” value [5]?
A: particularly outstanding effect; also recorded: high decorporating effectivity

Q: With `O=C(O)CN(CCN(CC(=O)O)CC(=O)O)CCN(CC(=O)O)CC(=O)O` [diethylenetriaminepentaacetic acid] as the molecule, how does the “stability of calcium complexes versus strontium complexes” value [4] read?
A: substantially more stable than their strontium complexes
